Consider 20 compounds from patent US11339165B2, “Pyrazolopyrimidines having activity against the respiratory syncytial virus (RSV)” (priority 2017, dated 2022).

The subject of data set [1] is rgRSV224 virus. Nature of the data set: Antiviral activity: rgRSV224 (GFP) replication in HeLa cells. The data set is classed as cell-based, respiratory syncytial virus (RSV). To be noted: human respiratory syncytial virus, HeLa, 72 h, read-out: RSV HELA EC50 (μM), rgRSV224 virus (MOI=1), HeLa cells, GFP expression three days post-virus exposure.
A short description of data set [2]: in vitro. To be noted: human, TOX HELA CC50 (μM).
Procedure: Black 384-well clear-bottom microtiter plates (Corning, Amsterdam, The Netherlands) were filled via acoustic drop ejection using the echo liquid handler (Labcyte, Sunnyvale, Calif.). 200 nL of compound stock solutions (100% DMSO) were transferred to the assay plates. 9 serial 4-fold dilutions of compound were made, creating per quadrant the same compound concentration. The assay was initiated by adding 10 μL of culture medium to each well (RPMI medium without phenol red, 10% FBS-heat inactivated, 0.04% gentamycin (50 mg/mL). All addition steps are done by using a multidrop dispenser (Thermo Scientific, Erembodegem, Belgium). Next, rgRSV224 virus (MOI=1) diluted in culture medium was added to the plates. rgRSV224 virus is an engineered virus that includes an additional GFP gene (Hallak L K, Spillmann D, Collins P L, Peeples M E. Glycosaminoglycan sulfation requirements for respiratory syncytial virus infection; Journal of virology (2000), 74(22), 10508-13) and was in-licensed from the NIH (Bethesda, Md., USA). Finally, 20 μL of a HeLa cell suspension (3,000 cells/well) were plated. Medium, virus- and mock-infected controls were included in each test. The wells contain 0.05% DMSO per volume. Cells were incubated at 37° C. in a 5% CO2 atmosphere. Three days post-virus exposure, viral replication was quantified by measuring GFP expression in the cells by an in house developed MSM laser microscope (Tibotec, Beerse, Belgium). The EC50 was defined as the 50% inhibitory concentration for GFP expression. In parallel, compounds were incubated for three days in a set of white 384-well microtiter plates (Corning) and the cytotoxicity of compounds in HeLa cells was determined by measuring the ATP content of the cells using the ATPlite kit (Perkin Elmer, Zaventem, Belgium) according to the manufacturer's instructions. The CC50 was defined as the 50% concentration for cytotoxicity.

In turn, `C[C@@H]1c2ccccc2CCN1C(=O)c1cc(C2CC2)n2nc(-c3ccc(N4CC[C@@H](S(C)(=N)=O)C4)cc3F)cc2n1` (stereo partly drawn) [Compound 79, [(3R)-1-(4-{7-Cyclopropyl-5-[(1R)-1-methyl-1,2,3,4-tetrahydroisoquinoline-2-carbonyl]-pyrazolo[1,5-a]pyrimidin-2-yl}-3-fluorophenyl)pyrrolidin-3-yl](imino)methyl-λ^6-sulfanone] had a melting point of 285.54 °C. In addition, in data set [1], the EC50 worked out at 0.476 µM. The same compound yielded a 50% cytotoxic concentration (CC50) at 3 days in data set [2] of 13.3 µM.

Turning to `C[C@@H]1c2ccccc2CCN1C(=O)c1cc(C2CC2)n2nc(-c3ccc(N4CC(O)C4)cc3F)cc2n1` [Compound 67, 1-(4-{7-Cyclopropyl-5-[(1R)-1-methyl-1,2,3,4-tetrahydroisoquinoline-2-carbonyl]-pyrazolo[1,5-a]pyrimidin-2-yl}-3-fluorophenyl)azetidin-3-ol], the melting point stood at 205.81 °C. In data set [1], the EC50 stood at 0.03 µM. Also, it took 36.5 µM to reach half-maximal cytotoxicity in data set [2] (CC50 at 3 days).

With `C[C@@H]1c2ccccc2CCN1C(=O)c1cc(C2CC2)n2nc(-c3ccc(N4CCC(O)CC4)cc3F)cc2n1` [Compound 74, 1-(4-{7-Cyclopropyl-5-[(1R)-1-methyl-1,2,3,4-tetrahydroisoquinoline-2-carbonyl]-pyrazolo[1,5-a]pyrimidin-2-yl}-3-fluorophenyl)piperidin-4-ol], the melting point came out at 144.01 °C. In addition, in data set [1], the EC50 was found to be 0.076 µM. Also, in data set [2], the midpoint of cytotoxicity, the CC50 at 3 days, lay at 48.1 µM.

For `C[C@@H]1c2cc(F)ccc2CCN1C(=O)c1cc(C2CC2)n2nc(-c3ccc(N4CC[C@H](C(N)=O)C4)cc3F)cc2n1` (single isomer, unassigned) [Compound 47, (3S)-1-(4-{7-Cyclopropyl-5-[(1*R)-7-fluoro-1-methyl-1,2,3,4-tetrahydroisoquinoline-2-carbonyl]pyrazolo[1,5-a]pyrimidin-2-yl}-3-fluorophenyl)pyrrolidine-3-carboxamide], the melting point came to 245.69 °C. Further, the EC50 in data set [1] was 0.009 µM. Besides, it took 41.5 µM to reach half-maximal cytotoxicity in data set [2] (CC50 at 3 days).

In turn, `CNC(=O)C1CCN(c2ccc(-c3cc4nc(C(=O)N5CCc6ccccc6[C@H]5C)cc(C5CC5)n4n3)c(F)c2)CC1` [Compound 72, 1-(4-{7-Cyclopropyl-5-[(1R)-1-methyl-1,2,3,4-tetrahydroisoquinoline-2-carbonyl]-pyrazolo[1,5-a]pyrimidin-2-yl}-3-fluorophenyl)-N-methylpiperidine-4-carboxamide] showed a melting point of 252.4 °C. Moreover, the EC50 in data set [1] came out at 0.087 µM. In addition, the CC50 at 3 days in data set [2] is over 100 µM.

`C[C@@H]1c2ccccc2CCN1C(=O)c1cc(C2CC2)n2nc(-c3ccc(N4CCC(S(N)(=O)=O)C4)cc3F)cc2n1` (stereo partly drawn) [Compound 19, 1-(4-{7-Cyclopropyl-5-[(1R)-1-methyl-1,2,3,4-tetrahydroisoquinoline-2-carbonyl]-pyrazolo[1,5-a]pyrimidin-2-yl}-3-fluorophenyl)pyrrolidine-3-sulfonamide]: the melting point is 308.63 °C. Besides, the EC50 in data set [1] is 0.041 µM. Besides, in data set [2], the CC50 at 3 days worked out at 72.3 µM.

In turn, `C[C@@H]1c2ccsc2CCN1C(=O)c1cc(C2CC2)n2nc(-c3ccc(N4CC[C@@H](CC(N)=O)C4)cc3F)cc2n1` (single isomer, unassigned) [Compound 43, 2-[(3S)-1-(4-{7-Cyclopropyl-5-[(4*R)-4-methyl-4,5,6,7-tetrahydro-thieno[3,2-c]pyridine-5-carbonyl]pyrazolo[1,5-a]pyrimidin-2-yl}-3-fluorophenyl)pyrrolidin-3-yl]acetamide] yielded a melting point of 214.36 °C. The EC50 in data set [1] worked out at 0.017 µM. The same compound had a CC50 at 3 days in data set [2] of 29.8 µM.

The compound `CC(=O)N[C@@H]1CCN(c2ccc(-c3cc4nc(C(=O)N5CCc6ccccc6[C@H]5C)cc(C5CC5)n4n3)c(F)c2)C1` [Compound 7, N-[(3R)-1-(4-{7-Cyclopropyl-5-[(1R)-1-methyl-1,2,3,4-tetrahydroisoquinoline-2-carbonyl]pyrazolo[1,5-a]pyrimidin-2-yl}-3-fluorophenyl)pyrrolidin-3-yl]acetamide] gave a melting point of 189 °C. The EC50 in data set [1] came out at 0.037 µM. In addition, in data set [2], it took 71.5 µM to reach half-maximal cytotoxicity (CC50 at 3 days).

For the compound `C[C@@H]1c2ccccc2CCN1C(=O)c1cc(C2CC2)n2nc(-c3ccc(N4CC(CC(N)=O)C4)cc3F)cc2n1` [Compound 65, 2-[1-(4-{7-Cyclopropyl-5-[(1R)-1-methyl-1,2,3,4-tetrahydroisoquinoline-2-carbonyl]-pyrazolo[1,5-a]pyrimidin-2-yl}-3-fluorophenyl)azetidin-3-yl]acetamide], the melting point is 211.64 °C. For the same compound, the EC50 in data set [1] is 0.048 µM. Also, the half-maximal cytotoxic concentration (CC50) at 3 days in data set [2] was 39.1 µM.

The compound `C[C@@H]1c2ccccc2CCN1C(=O)c1cc(C2CC2)n2nc(-c3ccc(N4CC[C@H](C(N)=O)C4)nc3F)cc2n1` [Compound 49, (3S)-1-(5-{7-Cyclopropyl-5-[(1R)-1-methyl-1,2,3,4-tetrahydroisoquinoline-2-carbonyl]-pyrazolo[1,5-a]pyrimidin-2-yl}-6-fluoropyridin-2-yl)pyrrolidine-3-carboxamide] had a melting point of 239.19 °C. In data set [1], the EC50 worked out at 0.024 µM. The compound also gave a half-maximal cytotoxic concentration (CC50) at 3 days in data set [2] of 32.3 µM.

Take `C[C@@H]1c2ccccc2CCN1C(=O)c1cc(-c2cncc(F)c2)n2nc(-c3ccc(N4CC[C@H](C(N)=O)C4)cc3F)cc2n1` [Compound 90, (3S)-1-{3-Fluoro-4-[7-(5-fluoropyridin-3-yl)-5-[(1R)-1-methyl-1,2,3,4-tetrahydro-isoquinoline-2-carbonyl]pyrazolo[1,5-a]pyrimidin-2-yl]phenyl}pyrrolidine-3-carboxamide]: the melting point is 269.08 °C. In addition, in data set [1], the EC50 was 0.046 µM.

As for `C[C@@H]1c2ccccc2CCN1C(=O)c1cc(-c2ccc(C#N)cc2)n2nc(-c3ccc(N4CC[C@H](C(N)=O)C4)cc3F)cc2n1` [Compound 62, (3S)-1-{4-[7-(4-Cyanophenyl)-5-[(1R)-1-methyl-1,2,3,4-tetrahydroisoquinoline-2-carbonyl]pyrazolo[1,5-a]pyrimidin-2-yl]-3-fluorophenyl}pyrrolidine-3-carboxamide], the melting point turned out to be 173.36 °C. In data set [1], the EC50 was determined as 0.043 µM. The compound also had a CC50 at 3 days in data set [2] of over 100 µM.

Compound `C[C@@H]1c2ccccc2CCN1C(=O)c1cc(C2CC2)n2nc(-c3ccc(N4CC(C(N)=O)C4)cc3F)cc2n1` [Compound 91, 1-(4-{7-Cyclopropyl-5-[(1R)-1-methyl-1,2,3,4-tetrahydroisoquinoline-2-carbonyl]pyrazolo[1,5-a]pyrimidin-2-yl}-3-fluorophenyl)azetidine-3-carboxamide] registered a melting point of 236.01 °C. Also, in data set [1], the EC50 worked out at 0.036 µM. Besides, half-maximal cytotoxicity in data set [2] (CC50 at 3 days) was put at 28.3 µM.

The compound `C[C@@H]1c2ccccc2CCN1C(=O)c1cc(C2CC2)n2nc(-c3cc(F)c(N4CC[C@H](C(N)=O)C4)cc3F)cc2n1` [Compound 55, (3S)-1-(4-{7-Cyclopropyl-5-[(1R)-1-methyl-1,2,3,4-tetrahydroisoquinoline-2-carbonyl]-pyrazolo[1,5-a]pyrimidin-2-yl}-2,5-difluorophenyl)pyrrolidine-3-carboxamide] displayed a melting point of 253.3 °C. The EC50 in data set [1] was determined as 0.016 µM. The compound also came in with a CC50 at 3 days in data set [2] of over 100 µM.

With `C[C@@H]1c2ccsc2CCN1C(=O)c1cc(C2CC2)n2nc(-c3ccc(N4CC[C@H](C(N)=O)C4)cc3F)cc2n1` (single isomer, unassigned) [Compound 46, (3S)-1-(4-{7-Cyclopropyl-5-[(4*R)-4-methyl-4,5,6,7-tetrahydro-thieno[3,2-c]pyridine-5-carbonyl]pyrazolo[1,5-a]pyrimidin-2-yl}-3-fluorophenyl)pyrrolidine-3-carboxamide], the melting point stood at 270 °C. Also, the EC50 in data set [1] was found to be 0.007 µM. The CC50 at 3 days in data set [2] turned out to be 31.3 µM.

The compound `C[C@@H]1c2ccccc2CCN1C(=O)c1cc(C2CC2)n2nc(-c3ccc(N4CC[C@@H](S(C)(=O)=O)C4)cc3F)cc2n1` [Compound 17, (1R)-2-(7-Cyclopropyl-2-{2-fluoro-4-[(3R)-3-methanesulfonylpyrrolidin-1-yl]phenyl}-pyrazolo[1,5-a]pyrimidine-5-carbonyl)-1-methyl-1,2,3,4-tetrahydroisoquinoline] registered a melting point of 258.48 °C. For the same compound, the EC50 in data set [1] came out at 0.05 µM. The compound also displayed a CC50 at 3 days in data set [2] of over 100 µM.

Regarding `COCCOc1cc(N2CC[C@H](C(N)=O)C2)nc(F)c1-c1cc2nc(C(=O)N3CCc4ccccc4[C@H]3C)cc(C3CC3)n2n1` [Compound 87, (3S)-1-(5-{7-Cyclopropyl-5-[(1R)-1-methyl-1,2,3,4-tetrahydroisoquinoline-2-carbonyl]-pyrazolo[1,5-a]pyrimidin-2-yl}-6-fluoro-4-(2-methoxyethoxy)pyridin-2-yl)pyrrolidine-3-carboxamide], the melting point is 152.28 °C. For the same compound, the EC50 in data set [1] came to 0.215 µM. This compound also had a CC50 at 3 days in data set [2] of 47.4 µM.

With `COc1ccc(-c2cc(C(=O)N3CCc4ccccc4[C@H]3C)nc3cc(-c4ccc(N5CC[C@H](C(N)=O)C5)cc4F)nn23)cc1` [Compound 57, (3S)-1-{3-Fluoro-4-[7-(4-methoxyphenyl)-5-[(1R)-1-methyl-1,2,3,4-tetrahydro-isoquinoline-2-carbonyl]pyrazolo[1,5-a]pyrimidin-2-yl]phenyl}pyrrolidine-3-carboxamide], the melting point turned out to be 216.34 °C. The EC50 in data set [1] was found to be 0.023 µM. This compound came in with a cytotoxic concentration (CC50) at 3 days in data set [2] of over 100 µM.

Regarding `C[C@@H]1c2ccccc2CCN1C(=O)c1cc(C2CC2)n2nc(-c3ccc(N4CC[C@H](C(=O)N(C)C)C4)cc3F)cc2n1` [Compound 38, (3S)-1-(4-{7-Cyclopropyl-5-[(1R)-1-methyl-1,2,3,4-tetrahydroisoquinoline-2-carbonyl]-pyrazolo[1,5-a]pyrimidin-2-yl}-3-fluorophenyl)-N,N-dimethylpyrrolidine-3-carboxamide], the EC50 in data set [1] was found to be 0.043 µM. In data set [2], this compound yielded a CC50 at 3 days of over 100 µM.

As for `C[C@@H]1c2ccccc2CCN1C(=O)c1cc(C2CC2)n2nc(-c3ccc(N4CCC(O)(CO)C4)cc3F)cc2n1` (single isomer, unassigned) [Compound 103], the EC50 in data set [1] was 0.019 µM. Besides, half-maximal cytotoxicity in data set [2] (CC50 at 3 days) was put at 35.8 µM.

In general, EC50 refers to the concentration giving half of the maximal effect. The melting point is the temperature of the solid-liquid transition. As usually defined, the CC50 is the concentration at which the toxic effect on the cells reaches its halfway point.
